Source: patent publication US12091696B2, “O-methyltransferase protein with highly specific catalytic function for multiple bias parent nuclei and encoding gene and use thereof” (INSTITUTE OF CHINESE MATERIA MEDICA CHINA ACADEMY OF …, priority 2023, dated 2024)

test system: wild-type O-methyltransferase; test: In vitro enzymatic activity of wild-type O-methyltransferase (comparison with mutant); type: biochemical, Nelumbo nucifera; details: same method as Example 1
Description: (§1) An in vitro enzymatic activity reaction was conducted at a pH value of 8.0 and 37° C. for 12 h in a 100 μL system containing 50 mM of a potassium phosphate buffer, 100 μM of a substrate, 200 μM of a SAM donor, and 50 μg of the purified protein. 100 μL of methanol was added to terminate the above reaction, the protein was centrifuged at 12,000×g for 30 min in a centrifuge, and a resulting supernatant was passed through a 0.22 μm microporous membrane and injected into UPLC-QTOF-MS/MS for detection. A sample prepared in a same way with boiled purified protein was served as a negative control.
A specific experimental method was the same as that in Example 1.

Row | Molecule | catalytic activity of wild-type O-methyltransferase on substrate, in words
1 | COc1cc2c(cc1O)[C@@H]1Cc3ccc(OC)c(OC)c3CN1CC2 [Compound 14, tetrahydrocolumbamine] | no catalytic activity

test system: NnOMT6N323A; test: In vitro enzymatic activity test of NnOMT6N323A (O-methylation of benzylisoquinoline substrates, UPLC-QTOF-MS/MS); type: biochemical, Nelumbo nucifera; details: mutant versus wild-type, FIG. 4
Description: as §1
The NnOMT6N323A was studied for substrate promiscuity with 15 benzylisoquinoline compounds (norcoclaurine (1), coclaurine (2), N-methylcoclaurine (3), norarmepavine (4), armepavine (5), lotusine (6), asimilobine (7), N-methlyasimilobine (8), lirinidine (9), liensinine (10), isoliensinine (11), neferine (12), scoulerine (13), tetrahydrocolumbamine (14), and jatrorrhizine (15)).
The chromatographic conditions were as follows: a chromatographic column was an ACQUITY UPLC CSH C18 column (2.1 mm×50 mm, 1.7 μm). A mobile phase A was 0.1% formic acid water, and a mobile phase B was acetonitrile; gradient elution was conducted, including: 0-0.5 min, 2% B; 0.5-1 min, 2%-5% B; 1-5 min, 5%-9% B; […], 9%-10% B; […], 10%-15% B; 16-20 min, 15%-45% B; 20-22 min, 45% B-100% B. A sample injection volume was 2 μL, a column temperature was 35° C., and a flow rate was 0.3 mL/min.
The mass spectrometry conditions were as follows: an ion source was a Dusal ESI source; the substrate was detected in a positive ion (PI) mode with a scan range of m/z 100-1000. […] MS/MS analysis was conducted with a collision energy of 30 eV and a collision energy voltage of 20 V.

Row | Molecule | enhancement of catalytic activity of mutant NnOMT6N323A compared with wild-type O-methyltransferase
2 | COc1cc2c(cc1O)C(Cc1ccc(O)cc1)NCC2 (stereo not drawn) [Compound 2, coclaurine] | about two times

same assay, conditions: pH 8.0, 37° C., 12 h; 100 μM substrate, 200 μM SAM, 50 μg purified protein

Row | Molecule | catalytic (O-methylation) activity of NnOMT6N323A on substrate, in words | conversion rate (O-methylation of substrate by NnOMT6N323A)
3 | Oc1ccc(CC2NCCc3cc(O)c(O)cc32)cc1 (stereo not drawn) [Compound 1, norcoclaurine] | could catalyze the O-methylation | 63.7%
4 | COc1cc2c(cc1O)C(Cc1ccc(O)cc1)NCC2 (stereo not drawn) [Compound 2, coclaurine] | could catalyze the O-methylation | 34.8%
5 | COc1cc2c(cc1O)[C@@H](Cc1ccc(O)cc1)N(C)CC2 [Compound 3, N-methylcoclaurine] | could catalyze the O-methylation | 47.6%
6 | COc1cc2c(cc1O)[C@@H]1Cc3ccc(OC)c(O)c3CN1CC2 [Compound 13, scoulerine] | could catalyze the O-methylation | –
7 | COc1cc2c(cc1OC)[C@@H]1Cc3ccc(OC)c(O)c3CN1CC2 [Compound 13a, tetrahydropalmatrubine] | further catalyzed | –
8 | COc1cc2c(cc1O)[C@@H]1Cc3ccc(OC)c(OC)c3CN1CC2 [Compound 14, tetrahydrocolumbamine] | could catalyze the O-methylation | about 42.3%
9 | COc1cc2c(cc1O)CC[n+]1cc3c(OC)c(OC)ccc3cc1-2 [Compound 15, jatrorrhizine] | no activity | –
10 | N-methlyasimilobine [Compound 8] | could catalyze the O-methylation | 55.4%
11 | asimilobine [Compound 7] | could catalyze the O-methylation | 60.8%
12 | lirinidine [Compound 9] | no catalytic activity | –
